In paper PMC7064328 (Environmental Health Perspectives, 2020):

How the values were obtained:
Pregnant CD-1 mice = assay: Clinical chemistry of dam serum and urine; format: in vivo, mouse (CD-1); conditions: for ALB / ALP / ALT / AST / BUN / Chol / Cre / Glu / HDL / LDL / SDH / TBA / TP / Trig: dam serum; for Ucrea: dam urine
Description: Dam livers, kidneys, and placentas were trimmed and embedded by the NIEHS Mouse Embryo Phenotyping Core. Tissues collected at necropsy were fixed in 4% PFA for 72 h and paraffin embedded, and 5-μm sections were prepared and stained with hematoxylin and eosin (H&E). Pathology was evaluated and a pathology review conducted by S.A.E. Diplomate American College of Veterinary Pathologists (DACVP). Pathology reviews were conducted as an informed approach analysis [e.g., nonblinded analysis; see Sills et al. ([2019])]. Select tissue slides were scanned using the AT2 Scanner (Aperio). Images were then captured for publication using the ImageScope software; version 12.3.0.5056 (Aperio). Serum and urine obtained from dams in Block 2 were analyzed using the AU480 clinical chemistry analyzer (Beckman Coulter Inc.). Reagents and calibration standards used to measure alkaline phosphatase (ALP), alanine aminotransferase (ALT), aspartate aminotransferase (AST), blood urea nitrogen (BUN), serum creatinine, urine creatinine, glucose (Glu), total protein (TP), triglyceride (Trig), high-density lipoprotein (HDL), cholesterol (Chol), and albumin (ALB) were purchased from Beckman Coulter Inc. Reagents for sorbitol dehydrogenase (SDH), total bile acid (TBA), and micro-TP were purchased from Sekisui Diagnostics. The reagent used to measure low-density lipoprotein (LDL) was purchased form Diazyme Laboratories.

embryo–placenta unit = assay: Embryo/placental growth metrics (mixed-effect models); format: in vivo, mouse (CD-1)
Description: From each uterus, first, viable embryos and their matched placentas were collected in succession within a horn and immediately snap frozen ( n=2–5 per litter ), and subsequent embryos were collected for growth measurements ( n=2–11 per litter ). Additional placentas were collected and placed in 4% paraformaldehyde (PFA) for histological analysis (Block 2 only). Amniotic fluid was collected by needle aspiration from litters euthanized at E11.5 and snap frozen in liquid nitrogen. Embryo livers were collected from litters euthanized at E17.5 and snap frozen in liquid nitrogen. Dam livers were weighed, a portion of the left lateral lobe was placed in 4% PFA for histology, and another portion of the same lobe was snap frozen in liquid nitrogen. A third liver section was obtained from Block 2 dams and fixed in McDowell and Trump’s fixative for electron microscopy (EM). Gross lesions were collected when observed and placed in 4% PFA for histology. Dam kidneys were removed, a cross section was prepared from the right kidney, a longitudinal section was prepared from the left kidney, and both sections were fixed in 4% PFA for histological analysis.
Gross observations were recorded at necropsy. Embryo sex was determined by polymerase chain reaction (PCR) amplification of the Sry gene (forward, 5′-[…]-3′, and reverse, 3′-[…]-5′) using a snipped portion of tissue (TransnetYX®, Inc.). Embryos and their placentas were weighed separately as wet tissue. Images of embryos were obtained on a Leica Z16 APO imaging scope, and embryo length was measured as snout-to-rump distance using FIJI ([Schindelin et al. 2012]) and Zen 2 Blue (Zeiss).
Embryo and placental metrics were analyzed using mixed-effect models and included a priori fixed effects of treatment group and litter size and a random-effects term for the dam using the lme4 package. Embryo and placental metrics included embryo weight, embryo length, placental weight, and embryo:placenta weight ratios, a meaningful predictor of fetal birth outcomes in humans ([Hayward et al. 2016]). To account for potential introduction of random effects, the study block (Block 1 or Block 2) and experimenter handling of embryo/placental tissues (Experimenter A or Experimenter B) were included as additional random effects. Models were fit in a stepwise procedure for random effects, and final models included treatment group and litter size as fixed effects using the lmerTest package ([Kuznetsova et al. 2017]). All final models included dam as a random effect but were allowed to vary in the inclusion of experimenter and experimental block random effects based on likelihood ratio test results. Point estimates and 95% CIs were determined from the final model using the Wald method. The number of individual observations for each outcome (embryo weight, placenta weight, and embryo:placenta weight ratio) and the number of litters evaluated in the mixed-effect models are shown in Table S1.

**Q.** Which results are given for `N.O=C(O)C(F)(OC(F)(F)C(F)(F)C(F)(F)F)C(F)(F)F` (stereo not drawn) [GenX, ammonium 2,3,3,3-tetrafluoro-2-(heptafluoropropoxy)propanoate]?
**A.** Chol higher compared with controls (Pregnant CD-1 mice; E11.5, 2 mg/kg/d): 66%; Dam serum Trig lowered vs controls (Pregnant CD-1 mice; E11.5, 2 mg/kg/d): 43%; HDL higher compared with controls (Pregnant CD-1 mice; E11.5, 2 mg/kg/d): 56%; Dam serum Trig lowered vs controls (Pregnant CD-1 mice; E11.5, 10 mg/kg/d): 61%; Dam serum Trig lower vs controls (Pregnant CD-1 mice; E17.5, 10 mg/kg/d): 74%; LDL lower vs controls (Pregnant CD-1 mice; E17.5, 10 mg/kg/d): 31%; ALB (Pregnant CD-1 mice; E11.5, 2 mg/kg/d): 2.75±0.33 (4) g/dL; ALP (Pregnant CD-1 mice; E11.5, 2 mg/kg/d): 58.4±9.0 (5) U/L; ALT (Pregnant CD-1 mice; E11.5, 2 mg/kg/d): 24.2±13.7 (5) U/L; AST (Pregnant CD-1 mice; E11.5, 2 mg/kg/d): 69.0±22.0 (5) U/L; BUN (Pregnant CD-1 mice; E11.5, 2 mg/kg/d): 18.3±4.6 (4) mg/dL; Chol (Pregnant CD-1 mice; E11.5, 2 mg/kg/d): 93.4±27.8 (5) mg/dL; Cre (Pregnant CD-1 mice; E11.5, 2 mg/kg/d): 0.2±0.04 (4) mg/dL; Glu (Pregnant CD-1 mice; E11.5, 2 mg/kg/d): 249.3±25.8 (4) mg/dL; HDL (Pregnant CD-1 mice; E11.5, 2 mg/kg/d): 50.2±15.7 (5) mg/dL; LDL (Pregnant CD-1 mice; E11.5, 2 mg/kg/d): 15±4.8 (4) mg/dL; SDH (Pregnant CD-1 mice; E11.5, 2 mg/kg/d): 7.0±6.5 (4) U/L; TBA (Pregnant CD-1 mice; E11.5, 2 mg/kg/d): 1.4±0.55 (5) μM/L; TP (Pregnant CD-1 mice; E11.5, 2 mg/kg/d): 4.5±0.48 (4) g/dL; Trig (Pregnant CD-1 mice; E11.5, 2 mg/kg/d): 117.6±33.9 (5) mg/dL; ALB (Pregnant CD-1 mice; E11.5, 10 mg/kg/d): 2.8±0.17 (3) g/dL; ALP (Pregnant CD-1 mice; E11.5, 10 mg/kg/d): 83.0±25.8 (5) U/L; ALT (Pregnant CD-1 mice; E11.5, 10 mg/kg/d): 78.2±62.0 (5) U/L; AST (Pregnant CD-1 mice; E11.5, 10 mg/kg/d): 136.8±138.9 (4) U/L; BUN (Pregnant CD-1 mice; E11.5, 10 mg/kg/d): 13.7±1.5 (3) mg/dL; Chol (Pregnant CD-1 mice; E11.5, 10 mg/kg/d): 77.0±16.4 (4) mg/dL; Cre (Pregnant CD-1 mice; E11.5, 10 mg/kg/d): 0.18±0.02 (3) mg/dL; Glu (Pregnant CD-1 mice; E11.5, 10 mg/kg/d): 226.7±28.9 (3) mg/dL; HDL (Pregnant CD-1 mice; E11.5, 10 mg/kg/d): 43.3±6.1 (4) mg/dL; LDL (Pregnant CD-1 mice; E11.5, 10 mg/kg/d): 12.5±1.9 (4) mg/dL; SDH (Pregnant CD-1 mice; E11.5, 10 mg/kg/d): 8.0±3.65 (4) U/L; TBA (Pregnant CD-1 mice; E11.5, 10 mg/kg/d): 35.3±67.8 (4) μM/L; TP (Pregnant CD-1 mice; E11.5, 10 mg/kg/d): 4.37±0.29 (3) g/dL; Trig (Pregnant CD-1 mice; E11.5, 10 mg/kg/d): 80.3±14.4 (4) mg/dL; ALB (Pregnant CD-1 mice; E17.5, 2 mg/kg/d): 2.32±0.26 (5) g/dL; ALP (Pregnant CD-1 mice; E17.5, 2 mg/kg/d): 55.4±11.8 (5) U/L; ALT (Pregnant CD-1 mice; E17.5, 2 mg/kg/d): 4.4±3.9 (5) U/L; AST (Pregnant CD-1 mice; E17.5, 2 mg/kg/d): 65.6±12.1 (5) U/L; BUN (Pregnant CD-1 mice; E17.5, 2 mg/kg/d): 13.6±1.1 (5) mg/dL; Chol (Pregnant CD-1 mice; E17.5, 2 mg/kg/d): 86.6±17.1 (5) mg/dL; Cre (Pregnant CD-1 mice; E17.5, 2 mg/kg/d): 0.17±0.03 (5) mg/dL; Glu (Pregnant CD-1 mice; E17.5, 2 mg/kg/d): 123.2±13.1 (5) mg/dL; HDL (Pregnant CD-1 mice; E17.5, 2 mg/kg/d): 39.4±8.5 (5) mg/dL; LDL (Pregnant CD-1 mice; E17.5, 2 mg/kg/d): 20.0±3.9 (5) mg/dL; SDH (Pregnant CD-1 mice; E17.5, 2 mg/kg/d): 1.2±2.2 (5) U/L; TBA (Pregnant CD-1 mice; E17.5, 2 mg/kg/d): 4.8±3.0 (5) μM/L; TP (Pregnant CD-1 mice; E17.5, 2 mg/kg/d): 4.1±0.36 (5) g/dL; Trig (Pregnant CD-1 mice; E17.5, 2 mg/kg/d): 257.0±120.3 (5) mg/dL; ALB (Pregnant CD-1 mice; E17.5, 10 mg/kg/d): 2.26±0.3 (5) g/dL; ALP (Pregnant CD-1 mice; E17.5, 10 mg/kg/d): 88.8±13.0 (5) U/L; ALT (Pregnant CD-1 mice; E17.5, 10 mg/kg/d): 9.6±2.1 (5) U/L; AST (Pregnant CD-1 mice; E17.5, 10 mg/kg/d): 113.2±36.6 (5) U/L; BUN (Pregnant CD-1 mice; E17.5, 10 mg/kg/d): 15.2±1.8 (5) mg/dL; Chol (Pregnant CD-1 mice; E17.5, 10 mg/kg/d): 97.4±8.4 (5) mg/dL; Cre (Pregnant CD-1 mice; E17.5, 10 mg/kg/d): 0.15±0.06 (5) mg/dL; Glu (Pregnant CD-1 mice; E17.5, 10 mg/kg/d): 111.6±15.5 (5) mg/dL; HDL (Pregnant CD-1 mice; E17.5, 10 mg/kg/d): 50.0±8.9 (5) mg/dL; LDL (Pregnant CD-1 mice; E17.5, 10 mg/kg/d): 15.2±2.9 (5) mg/dL; SDH (Pregnant CD-1 mice; E17.5, 10 mg/kg/d): 11.4±6.8 (5) U/L; TBA (Pregnant CD-1 mice; E17.5, 10 mg/kg/d): 6.2±4.2 (5) μM/L; TP (Pregnant CD-1 mice; E17.5, 10 mg/kg/d): 3.9±0.52 (5) g/dL; Trig (Pregnant CD-1 mice; E17.5, 10 mg/kg/d): 120.6±31.7 (5) mg/dL; Ucrea (Pregnant CD-1 mice; E11.5, 2 mg/kg/d): 53.2±14.0 (3) mg/dL; Ucrea (Pregnant CD-1 mice; E11.5, 10 mg/kg/d): 82.9±33.2 (5) mg/dL; Ucrea (Pregnant CD-1 mice; E17.5, 2 mg/kg/d): 18.6±5.1 (4) mg/dL; Ucrea (Pregnant CD-1 mice; E17.5, 10 mg/kg/d): 20.2±15.7 (4) mg/dL; Embryo length, adjusted estimate (95% CI) (embryo–placenta unit; E11.5, 2 mg/kg/d): 17.6 (14.7, 20.5) mm; Embryo weight, adjusted estimate (95% CI) (embryo–placenta unit; E11.5, 2 mg/kg/d): 49.9 (16.7, 83.1) mg; Placental weight, adjusted estimate (95% CI) (embryo–placenta unit; E11.5, 2 mg/kg/d): 34.0 (0.1, 67.8) mg; Embryo length, adjusted estimate (95% CI) (embryo–placenta unit; E11.5, 10 mg/kg/d): 17.4 (14.5, 20.3) mm; Embryo weight, adjusted estimate (95% CI) (embryo–placenta unit; E11.5, 10 mg/kg/d): 45.2 (12.0, 78.3) mg; Placental weight, adjusted estimate (95% CI) (embryo–placenta unit; E11.5, 10 mg/kg/d): 38.4 (4.5, 72.2) mg; Embryo length, adjusted estimate (95% CI) (embryo–placenta unit; E17.5, 2 mg/kg/d): 32.7 (28.7, 36.6) mm; Embryo weight, adjusted estimate (95% CI) (embryo–placenta unit; E17.5, 2 mg/kg/d): 1369.8 (1111.3, 1628.4) mg; Placental weight, adjusted estimate (95% CI) (embryo–placenta unit; E17.5, 2 mg/kg/d): 137.1 (105.6, 168.6) mg; Embryo length, adjusted estimate (95% CI) (embryo–placenta unit; E17.5, 10 mg/kg/d): 33.8 (29.8, 37.7) mm; Embryo weight, adjusted estimate (95% CI) (embryo–placenta unit; E17.5, 10 mg/kg/d): 1337.0 (1077.5, 1596.4) mg; Placental weight, adjusted estimate (95% CI) (embryo–placenta unit; E17.5, 10 mg/kg/d): 146.3 (114.7, 177.9) mg
